Laboratory results: publication PMC11524583, “Neurons enhance blood–brain barrier function via upregulating claudin-5 and VE-cadherin expression due to glial cell line-derived neurotrophic factor secretion” (eLife, 2024)
Values joined by “and” are separate entries in the source; they are usually repeats but may differ in a detail not shown here. Equal values may be shown once. “Also recorded” adds a separate entry of the source. Read-outs that look alike come from different tables or passages of the source. Marks after values point to notes of the source that are not given here.

Columns and labels:
[1] = test system: hCMEC/D3 mono-culture BBB model
[2] = test system: triple co-culture BBB model (hCMEC/D3, U251 and SH-SY5Y cells)
[3] = in vitro; settings: human
[4] = in vitro; settings: human; remark: listed apart in the source
[5] = unbound fraction in brain, cited from earlier work
[6] = in situ brain perfusion in rodents, published permeability multiplied by VSA 150 cm^2/g, cited from earlier work
[7] = test system: triple co-culture BBB model (hCMEC/D3, U251 and SH-SY5Y cells); assay: In vitro BBB permeability study (Papp), triple co-culture BBB model; settings: for decreased permeability of fluorescein and FITC-Dex in the triple co-culture BBB model, effect of inhibitor: 3 μM SPP-86 or 5 μM PP2
[8] = test system: hCMEC/D3 mono-culture BBB model; assay: In vitro BBB permeability study (Papp), hCMEC/D3 mono-culture BBB model; settings: for GDNF-decreased permeability of fluorescein and FITC-Dex, effect of inhibitor: hCMEC/D3 mono-culture, 200 pg/ml GDNF, 3 μM SPP-86 or 5 μM PP2
[9] = test system: hCMEC/D3 mono-culture BBB model; assay: TEER of hCMEC/D3 mono-culture BBB model; format: cell-based, Homo sapiens; settings: hCMEC/D3 mono-culture, 200 pg/ml GDNF, day 6; 3 μM SPP-86 or 5 μM PP2
[10] = test system: triple co-culture BBB model (hCMEC/D3, U251 and SH-SY5Y cells); assay: TEER of triple co-culture BBB model; format: cell-based, Homo sapiens; settings: for increased TEER values in the triple co-culture BBB model, effect of inhibitor: day 6, 3 μM SPP-86 or 5 μM PP2
Procedure: The establishment process of the triple co-culture model is illustrated in Figure 9. SH-SY5Y cells were seeded at a density of 4.5 × 10^4 cells/cm^2 in plates and differentiated with 10 μM retinoic acid (Sigma-Aldrich, St. Louis, MO, USA) for 72 hr. The differentiated SH-SY5Y cells were cultured in the fresh DMEM/F12 medium containing 10% FBS. U251 cells were seeded at 2 × 10^4 cells/cm^2 on the bottom of Transwell inserts (PET, 0.4 µm pore size, SPL Life Sciences, Pocheon, Korea) coated with rat-tail collagen (Corning Inc, Corning, NY, USA). Next, the inserts were suspended in plate wells containing the culture medium after 5 hr of incubation. After 24 hr of incubation, hCMEC/D3 cells were seeded on the apical side of the inserts at 3 × 10^4 cells/cm^2 and cultured for another 48 hr. Then, the inserts seeded with U251 and hCMEC/D3 cells were suspended in plates seeded with differentiated SH-SY5Y cells and co-cultured for another 6 days. The culture medium was replaced every 24 hr. TEER was periodically measured using a Millicell-ERS (MERS00002) instrument (Millipore, Billerica MA, USA) to monitor cell confluence and development of TJs.

[11] = test system: claudin-5; assay: Western blot of claudin-5 expression in hCMEC/D3 cells; format: cell-based, Homo sapiens; settings: hCMEC/D3 cells, anti-GDNF antibody 0.25, 0.5, 1.0 μg/ml; for GDNF-induced claudin-5 expression: 200 pg/ml GDNF, 3 μM SPP-86, 5 μM PP2, 3 μM LY294002, 2 μM U0126, 5 μM SP600125, 2 μM SB203580; for US-CM-induced claudin-5 expression: 3 μM SPP-86, 5 μM PP2, 3 μM LY294002, 2 μM U0126
Procedure: (§1) Whole-cell and tissue lysates, nucleoprotein, and cytoplasmic protein were prepared using RIPA Lysis Buffer (Beyotime, Shanghai, China) as the described method ([Wu et al., 2021]). Proteins were separated through sodium dodecyl sulfate–polyacrylamide gel electrophoresis and transferred onto nitrocellulose or polyvinylidene difluoride membranes. The membranes were blocked with 5% skim milk and incubated with corresponding primary antibodies at 4°C overnight. After being washed with Tris-buffered saline Tween buffer, the membranes were incubated with secondary antibodies (Cell Signaling Technology, MA, USA) at 1:3000 dilution: Anti-mouse IgG, HRP-linked Antibody (#7076), Anti-rabbit IgG, HRP-linked Antibody (#7074). Protein levels were visualized using a highly sensitive ECL western blotting substrate and a gel imaging system (Tanon Science & Technology, Shanghai, China).
(§2) CM of U251 cells (U-CM), SH-SY5Y cells (S-CM), or co-culture of U251 and SH-SY5Y cells (US-CM) was prepared. U251 cells were seeded at the top of the insert membrane and suspended on 6-well plates seeded with differentiated SH-SY5Y cells to co-culture U251 cells with SH-SY5Y cells. The medium was collected every 24 hr. The CMs were subsequently used for hCMEC/D3 cell culture after filtrating with 0.2 μm filters for 144 hr. The levels of GDNF, bFGF, IGF-1, and TGF-β in CMs were measured using corresponding ELISA kits according to the manufacturers’ instructions.
(§3) Exogenous and endogenous GDNF in the medium was neutralized with anti-GDNF antibody (#AF-212-NA, R&D system, Minneapolis, MN, USA). 0.25, 0.5, and 1.0 μg/ml anti-GDNF antibody was added into the US-CM or medium containing 200 pg/ml GDNF, and then the medium was preincubated at 4°C for 1 hr. The hCMEC/D3 cells were incubated with 200 pg/ml GDNF or US-CM containing anti-GDNF antibody or not for 6 days, and then cell lysate was collected for western blot. The medium was replaced every 24 hr.
(§4) Here, hCMEC/D3 cells were plated in the plates or culture dishes at 6 × 10^4 cells/cm^2 and transfected with 10 nM of negative control or human FOXO1, ETS1, and CDH5 siRNA (Tsingke Biotechnology, Beijing, China) for 12 hr using Lipofectamine 3000 (Invitrogen, Carlsbad, CA, USA) reagent according to the manufacturer’s instructions. Cells were then incubated with a medium containing GDNF for 72 hr.
The plasmids encoding FOXO1 (EX-Z7404-M02) were constructed by GeneCopoeia (Rockville, MD, USA). The hCMEC/D3 cells were plated in plates or dishes at 6 × 10^4 cells/cm^2. They were subsequently transfected with 1 µg of negative control or plasmids encoding FOXO1 6 hr using Lipofectamine 3000 reagent according to the manufacturer’s instructions. Transfected cells were then incubated with the medium containing GDNF for 72 hr.

[12] = test system: VE-cadherin; assay: Western blot of VE-cadherin expression in hCMEC/D3 cells; format: cell-based, Homo sapiens; settings: hCMEC/D3 cells, anti-GDNF antibody 0.25, 0.5, 1.0 μg/ml; for GDNF-induced VE-cadherin expression: 200 pg/ml GDNF, 3 μM SPP-86, 5 μM PP2, 3 μM LY294002, 2 μM U0126, 5 μM SP600125, 2 μM SB203580; for US-CM-induced VE-cadherin expression: 3 μM SPP-86, 5 μM PP2, 3 μM LY294002, 2 μM U0126
Procedure: as §1, §2, §3, §4

NC12CC3CC(CC(C3)C1)C2 [Amantadine]
PSPre, Mono ([1]; human): 310.22 µL/min/g
PS ([1]; human, 30 min): 310.22 µL/min/g
PS ([2]; human, 30 min): 165.23 µL/min/g
Papp A→B at 30 min ([3]; Papp, Mono): 6.84 ± 0.95 ×10⁻⁶ cm/s
Papp A→B at 30 min ([4]; Papp (individual replicate)): 3.04 ×10⁻⁶ cm/s
Papp A→B at 30 min ([4]; Papp, Triple): 3.64 ± 0.26 ×10⁻⁶ cm/s
fu, brain ([5]; ref Esaki et al., 2019): 0.1985^*
PSObs ([6]; ref Summerfield et al., 2007): 116.10^† μl/min/g

CN(C)CCC=C1c2ccccc2CCc2ccccc21 [Amitriptyline]
PSPre, Mono ([1]; human): 13,716.00 μl/min/g
PS ([1]; human, 30 min): 13716.00 µL/min/g
PSPre, Triple ([2]; human): 13,149.00 μl/min/g
PS ([2]; human, 30 min): 13149.00 µL/min/g
Papp A→B at 30 min ([3]; Papp (individual replicate)): 16.6 ×10⁻⁶ cm/s
Papp A→B at 30 min ([3]; Papp Mean): 15.2 ×10⁻⁶ cm/s
Papp A→B at 30 min ([3]; Papp, Mono): 15.2 ± 0.64 ×10⁻⁶ cm/s
Papp A→B at 30 min ([4]; Papp (individual replicate)): 14 ×10⁻⁶ cm/s
Papp A→B at 30 min ([4]; Papp Mean): 14.6 ×10⁻⁶ cm/s
Papp A→B at 30 min ([4]; Papp, Triple): 14.6 ± 0.27 ×10⁻⁶ cm/s
fu, brain ([5]; ref Fridén et al., 2011): 0.01^‡
fu, brain ([5]; ref Sánchez-Dengra et al., 2021): 0.002
fu, brain ([5]; ref Weber et al., 2013): 0.0071
PSObs ([6]; ref Avdeef and Sun, 2011): 4608.00^*** μl/min/g

CC(NC(C)(C)C)C(=O)c1cccc(Cl)c1 (stereo not drawn) [Buproprion]
PS [1]: 1139.58 µL/min/g
PS [2]: 850.58 µL/min/g
Papp A→B ([7]; read-out: Papp Mean, Triple co-culture BBB model, mean of 4 replicates): 11.3 ×10⁻⁶ cm/s
Papp A→B ([8]; read-out: Papp Mean, Mono-culture BBB Model, mean of 4 replicates): 15.2 ×10⁻⁶ cm/s

CN1CCN(C2=Nc3cc(Cl)ccc3Nc3ccccc32)CC1 [Clozapine]
PSPre, Mono ([1]; human): 25,052.57 μl/min/g
PS ([1]; human, 30 min): 25052.57 µL/min/g
PS ([2]; human, 30 min): 8272.72 µL/min/g
Papp A→B at 30 min ([3]; Papp (individual replicate)): 38.9 ×10⁻⁶ cm/s
Papp A→B at 30 min ([3]; Papp, Mono): 39 ± 0.54 ×10⁻⁶ cm/s
Papp A→B at 30 min ([4]; Papp, Triple): 12.9 ± 2.06 ×10⁻⁶ cm/s
fu, brain ([5]; ref Bhyrapuneni et al., 2018): 0.0056
fu, brain ([5]; ref Cremers et al., 2012): 0.014^**

CN(C)CCC=C1c2ccccc2COc2ccccc21 [Doxepin]
PSPre, Mono ([1]; human): 6076.80 µL/min/g
PS ([1]; human, 30 min): 6076.80 µL/min/g
PS ([2]; human, 30 min): 3837.60 µL/min/g
Papp A→B at 30 min ([3]; Papp Mean): 16.9 ×10⁻⁶ cm/s
Papp A→B at 30 min ([3]; Papp, Mono): 16.9 ± 1.08 ×10⁻⁶ cm/s
fu, brain ([5]; ref Summerfield et al., 2007): 0.025^†
PSObs ([6]; ref Summerfield et al., 2007): 2192.40^† μl/min/g

CCN(CC)CCNC(=O)c1cc(Cl)c(N)cc1OC [Metoclopramide]
PSPre, Mono ([1]; human): 348.66 µL/min/g
PS ([1]; human, 30 min): 348.66 µL/min/g
PS ([2]; human, 30 min): 163.41 µL/min/g
Papp A→B at 30 min ([3]; Papp Mean): 14.1 ×10⁻⁶ cm/s
Papp A→B at 30 min ([3]; Papp, Mono): 14.1 ± 1.44 ×10⁻⁶ cm/s
fu, brain ([5]; ref Summerfield et al., 2007): 0.365^†
PSObs ([6]; ref Summerfield et al., 2007): 125.10^† μl/min/g

CC(C)(C)n1nc(-c2ccc(Cl)cc2)c2c(N)ncnc21 [PP2]
GDNF-increased TEER values, effect of inhibitor [9]: almost abolished
TEER ([10]; Triple+PP2, Day3, single replicates, Figure 2S): 61.05 Ω·cm2 and 61.38 Ω·cm2 and 59.07 Ω·cm2 and 63.36 Ω·cm2
TEER ([10]; Triple+PP2, Day4, single replicates, Figure 2S): 66.66 Ω·cm2 and 65.01 Ω·cm2 and 64.68 Ω·cm2 and 62.04 Ω·cm2
TEER ([10]; Triple+PP2, Day5, single replicates, Figure 2S): 81.51 Ω·cm2 and 78.21 Ω·cm2 and 77.88 Ω·cm2 and 76.89 Ω·cm2
TEER ([10]; Triple+PP2, Day6, single replicates, Figure 2S): 78.21 Ω·cm2 and 80.19 Ω·cm2 and 76.23 Ω·cm2 and 79.2 Ω·cm2
increased TEER values in the triple co-culture BBB model, effect of inhibitor [10]: completely reversed
GDNF-induced claudin-5 expression [11]: markedly attenuated
US-CM-induced claudin-5 expression [11]: markedly attenuated
GDNF-induced VE-cadherin expression [12]: markedly attenuated
US-CM-induced VE-cadherin expression [12]: markedly attenuated
decreased permeability of fluorescein and FITC-Dex in the triple co-culture BBB model, effect of inhibitor [7]: completely reversed
GDNF-decreased permeability of fluorescein and FITC-Dex, effect of inhibitor [8]: almost abolished

CC(C)n1nc(C#Cc2ccccc2)c2c(N)ncnc21 [SPP-86]
GDNF-increased TEER values, effect of inhibitor [9]: almost abolished
TEER ([10]; Figure 2Q, group Triple+SPP, Day3, individual replicates, listed as SPP): 56.76 Ω·cm2 and 57.75 Ω·cm2 and 55.77 Ω·cm2 and 59.4 Ω·cm2
TEER ([10]; Figure 2Q, group Triple+SPP, Day4, individual replicates, listed as SPP): 63.03 Ω·cm2 and 62.37 Ω·cm2 and 61.38 Ω·cm2 and 59.4 Ω·cm2
TEER ([10]; Figure 2Q, group Triple+SPP, Day5, individual replicates, listed as SPP): 71.94 Ω·cm2 and 75.24 Ω·cm2 and 74.25 Ω·cm2 and 72.27 Ω·cm2
TEER ([10]; Figure 2Q, group Triple+SPP, Day6, individual replicates, listed as SPP): 75.24 Ω·cm2 and 76.56 Ω·cm2 and 75.9 Ω·cm2 and 74.25 Ω·cm2
increased TEER values in the triple co-culture BBB model, effect of inhibitor [10]: completely reversed
GDNF-induced claudin-5 expression [11]: markedly attenuated; also recorded: significantly suppressed
US-CM-induced claudin-5 expression [11]: markedly attenuated; also recorded: markedly reversed
GDNF-induced VE-cadherin expression [12]: markedly attenuated; also recorded: significantly suppressed
US-CM-induced VE-cadherin expression [12]: markedly attenuated; also recorded: markedly reversed
decreased permeability of fluorescein and FITC-Dex in the triple co-culture BBB model, effect of inhibitor [7]: completely reversed
GDNF-decreased permeability of fluorescein and FITC-Dex, effect of inhibitor [8]: almost abolished
